# From article PMC6093650, “Antidepressive and anxiolytic effects of ostruthin, a TREK-1 channel activator” (PLoS ONE, 2018)
# What was measured:
# [1] = target: T1, TREK-1 channel (Homo sapiens, UniProt O95069); experiment: whole-cell patch-clamp of TREK-1 currents in TR-1 cells (293T stably expressing TREK-1); format: cell-based; conditions: TR-1 (293T) cells, 25°C, applied 5 min after whole-cell access, n = 5; read-out: EC50 of activation of whole-cell TREK-1 currents
# T1 construct: expressed in transfected cells
# T1 sequence (O95069 1-426): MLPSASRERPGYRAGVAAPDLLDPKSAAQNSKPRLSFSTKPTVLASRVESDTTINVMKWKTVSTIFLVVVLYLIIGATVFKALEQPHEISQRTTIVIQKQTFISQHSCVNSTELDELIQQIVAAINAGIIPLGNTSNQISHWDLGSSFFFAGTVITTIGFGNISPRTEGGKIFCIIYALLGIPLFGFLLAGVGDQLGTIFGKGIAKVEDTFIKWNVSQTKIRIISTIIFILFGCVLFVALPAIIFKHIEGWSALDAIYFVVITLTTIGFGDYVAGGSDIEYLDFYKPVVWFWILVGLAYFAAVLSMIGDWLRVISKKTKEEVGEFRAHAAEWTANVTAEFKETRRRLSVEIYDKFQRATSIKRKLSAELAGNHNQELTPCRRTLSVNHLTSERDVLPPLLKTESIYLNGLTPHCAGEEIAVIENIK
# Description: For recordings of K^+ channel currents, we prepared stable cell lines for TREK-1, TWIK-related acid-sensitive K^+ channel (TASK-1), strongly inwardly rectifying K^+ channel (Kir2.1), and human ether-a-go-go-related gene (HERG-1) channels and transiently expressed other channels in 293T cells using a calcium-phosphate transfection method. For the establishment of the stable lines, we used lentiviral vectors, and the preparation methods for the lentiviral vectors were described in our previous report. TR-1 cells, which stably expressed TREK-1 channel and were grown on a small cover glass (3 × 18 mm), were placed in a recording chamber with an internal volume of 200 μl. Whole-cell currents were recorded in Tyrode solution using an Axopatch 200B amplifier (Axon Instruments, Foster City, CA) at 25°C. […] Perfusion (100 μl/min) was continued to maintain the water level throughout recordings. pH and osmotic pressure of solutions were measured with a pH meter (Horiba, Kyoto, Japan) and a freezing point osmometer (Knauer, Berlin, Germany), respectively.
# We previously prepared a lentiviral vector that expressed the TREK-1 channel and using this vector we established a cell line, TR-1, which stably expressed the channel. […] Immediately after whole-cell access, small outward currents were recorded in response to depolarizing step pulses (Fig 1A, 0 min). […]
# [2] = system: mice anxiety-like behavior; experiment: light/dark box test; format: in vivo; conditions: n = 8
# Description: (§1) Male ICR mice (n = 317 in total) aged 5 weeks and weighing 32 ± 2 g were purchased from Shimizu Laboratory Supplies (Kyoto, Japan). For the social defeat stress test, we used 28 C57BL/6J mice (5 weeks old, Shimizu Laboratory Supplies) and 30 ICR mice (7–8 weeks old, Charles River Labs Japan, Yokohama, Kanagawa, Japan). Mice were maintained for at least 1 week prior to experiments. Animals were kept in groups in plastic cages. They had free access to food and water, and were kept in a 12-h light/dark cycle (08:00–20:00). Experiments were carried out between 10:00 and 18:00 in a quiet and air-conditioned experimental room, in which mice were habituated for at least 30 min before each experiment. Animal experiments were performed in accordance with the guidelines of the Physiological Society of Japan and were approved by the Committees on Animal Experiments at Kansai Medical University and the Kurashiki University of Science and the Arts. Ostruthin was initially dissolved in DMSO at higher concentration (100 mM) and then diluted in phosphate-buffered saline (PBS). The diluted solution was mixed vigorously for more than 10 min before the experiments, and an equal volume of DMSO was added to PBS as a control. PBS and ostruthin were administered intraperitoneally 30 min before mice behavioral tests (0.01 ml/g body weight). Each animal was used only once, except for the wheel running test, which was carried out immediately after elevated plus maze.
# The light/dark box consisted of two compartments with a total exterior size of 46 × 27 × 30 cm. One-third of the box was used as a dark compartment, which was covered with a black wall and lid, and the rest of the area was used as a light compartment. These compartments were connected via a small opening (7 × 7 cm), enabling transition between the two compartments. We placed a mouse in the center of the light area and measured the time spent in the light area and the number of transitions between the light and dark compartments for 5 minutes.
# [3] = system: depression-like behavior of mice; experiment: forced swim test; format: in vivo; conditions: 0, 2, 5, 20 mg/kg i.p. 30 min before test, dose-dependent, last 4 min of 6 min, n = 8
# Description: as §1, with “PBS and ostruthin were administered intraperitoneally 30 min before mice behavioral tests (0.01 ml/g body weight). Each animal was used only once, except for the wheel running test, which was carried out immediately after elevated plus maze.” left out
# The forced swim test was performed in accordance with a method reported previously. […] Mouse was allowed to swim for 6 min and the activity was measured. […]
# [4] = system: depression-like behavior of mice; experiment: tail suspension test; format: in vivo
# Description: as §1
# The tail suspension test was performed in accordance with a method reported previously. The mouse was hung on a hook using adhesive tape placed 2 cm from the extremity of its tail 50 cm above the table. The amount of time spent immobile was recorded for 5 min.
# [5] = system: GABAergic mIPSCS in the amygdala neurons; experiment: GABAergic mIPSCs in amygdala neurons (preliminary data); format: cell-based; conditions: 100 μM
# [6] = i.p. 30 min before test, vs 0 mg/kg
structure (smiles),measurement,setting,value
CC(C)=CCC/C(C)=C/Cc1cc2ccc(=O)oc2cc1O [ostruthin],EC50,[1],5.3 µM
same,time spent in the light box,"[2]; 20 mg/kg i.p., vs 5 mg/kg",decreased
same,number of transitions between the light and dark boxes,[2]; highest dose (20 mg/kg) i.p.,non-significantly decreased
same,number of transitions between the light and dark boxes,[2]; [6],increased
same,time spent in the light box,[2]; [6],significantly increased
same,time spent immobile,[3],decreased
same,time spent immobile,"[4]; amlodipine experiment: single compound vs PBS, ostruthin 5 mg/kg or amlodipine 10 mg/kg, n = 9 and 13",significantly decreased
same,time spent immobile,"[4]; i.p. 30 min before test, 5 min, n = 14, vs PBS",decreased
same,time spent immobile,[4]; ostruthin 5 mg/kg in the presence of amlodipine 10 mg/kg (co-administration),no effect
same,time spent immobile,"[4]; ostruthin given 30 min after pre-administration of amlodipine, vs secondary PBS, n = 8",ineffective
same,amplitude or frequency of GABAergic mIPSCS in the amygdala neurons,[5],no effect
